Data: publication PMC9852841, “Expanding the toolbox of metabolically stable lipid prodrug strategies” (Frontiers in Pharmacology, 2023)
pIC50: −log10 of the molar value. Where two headings read alike, the source gives them in different places.

What was measured:
[1] = system: VSV pseudotype HIV-like viral particles; test: organism not typed; format: cell-based; details: for pIC50: read-out: HIV IC50
[2] = Metabolic stability in human liver microsomes; details: for HLM stability (in words) / HLM t1/2: human liver microsomes; for HLM t1/2 / half-life at 3 µM: 3 μM prodrug, NADPH, 0-120 min; for microsomal CLint at 3 µM / half-life at 3 µM: human, microsomes; for microsomal CLint at 3 µM: pH 7.4; for half-life at 3 µM: pH 7.4, HLM t1/2, human liver microsomes
[3] = Cytotoxicity assay (cell viability, CellTiter 96 or resazurin); details: human, HEK293T cells
[4] = Solubility observations (aqueous, HSA formulations, growth media); format: physicochemical; details: observational, relative to TXL
[5] = dogs, single TAF dose
[6] = dogs, single TAF dose, cited from earlier work
in vitro = details: human, microsomes, pH 7.4
[7] = system: VSV pseudotype HIV-like viral particles; parameters: method as in Pribut et al., 2021; details: preliminary pseudoviral assay results; ref Pribut et al., 2021; cited from earlier work

SMILES | pIC50 ([1]; HEK-293T, 48 h) | HLM t1/2 [2] | microsomal CLint at 3 µM [2] | also measured
CCCCOCCCCCOCCCCCOCCCOP(=O)(O)CO[C@H](C)Cn1cnc2c(N)ncnc21.N [Compound 10, Ammonium [(1R)-2-(6-aminopurin-9-yl)-1-methyl-ethoxy]methyl-[3-[5-(5-butoxypentoxy)pentoxy]propoxy]phosphinate] | < 4.49 | – | – | antiviral activity (in words) [1]: completely abrogated antiviral activity; loss of antiviral activity [1]: > 1,800 fold
CCCCCCCCOCCCCCOCCCCCOP(=O)(O)CO[C@H](C)Cn1cnc2c(N)ncnc21.N [Compound 11, Ammonium 5-(5-octoxypentoxy)pentoxy-[[(1R)-2-(6-aminopurin-9-yl)-1-methyl-ethoxy]methyl]phosphinate] | 5.39 | 12 min | 58.6 µL/min/mg | antiviral activity (in words) [1]: low μM range; decay of antiviral activity with inclusion of the second oxygen atom [1]: 78 fold; HLM stability (in words) [2]: less stable in HLM relative to TXL; half-life at 3 µM [2]: 11.8 min
COCCOCCOCCOCCOCCOCCOP(=O)(O)CO[C@H](C)Cn1cnc2c(N)ncnc21.N [Compound 12, Ammonium 2,5,8,11,14,17-hexaoxanonadecan-19-yl (R)-(((1-(6-amino-9H-purin-9-yl)propan-2-yl)oxy)methyl)phosphonate] | 4.51 | – | – | pIC50 [1]: 4.46; CC50 at 48 h [3]: > 100000 nM; aqueous solubility (in words) [4]: observationally increased aqueous solubility
COCCOCCOCCOCCOP(=O)(O)CO[C@H](C)Cn1cnc2c(N)ncnc21.N [Compound 13, Ammonium [(1R)-2-(6-aminopurin-9-yl)-1-methyl-ethoxy]methyl-[2-[2-[2-(2-methoxyethoxy)ethoxy]ethoxy]ethoxy]phosphinate] | 4.57 | – | – | pIC50 [1]: 4.63; CC50 at 48 h [3]: > 100000 nM; aqueous solubility (in words) [4]: observationally increased aqueous solubility
COCCOCCOP(=O)(O)CO[C@H](C)Cn1cnc2c(N)ncnc21.N [Compound 14, Ammonium [(1R)-2-(6-aminopurin-9-yl)-1-methyl-ethoxy]methyl-[2-(2-methoxyethoxy)ethoxy]phosphinate] | 4.67 | – | – | pIC50 [1]: 4.71; CC50 at 48 h [3]: > 100000 nM; aqueous solubility (in words) [4]: observationally increased aqueous solubility
CCCCCCCCCCCCCCCCCOCCOP(=O)(O)CO[C@H](C)Cn1cnc2c(N)ncnc21.N [Compound 18, Ammonium 2-heptadecoxyethoxy-[[(1R)-2-(6-aminopurin-9-yl)-1-methyl-ethoxy]methyl]phosphinate] | 8.52 | 35 min | 19.8 µL/min/mg | boost in potency relative to analogue 20 [1]: 17 fold; half-life at 3 µM [2]: 34.9 min
CCCCCCCCCCCCCCCOCCCCOP(=O)(O)CO[C@H](C)Cn1cnc2c(N)ncnc21.N [Compound 19, Ammonium 4-pentadecoxybutoxy-[[(1R)-2-(6-aminopurin-9-yl)-1-methyl-ethoxy]methyl]phosphinate] | 7.52 | 48 min | 14.4 µL/min/mg | –
CCCCCCCCCCCCCCOCCCCCOP(=O)(O)CO[C@H](C)Cn1cnc2c(N)ncnc21.N [Compound 20, Ammonium [(1R)-2-(6-aminopurin-9-yl)-1-methyl-ethoxy]methyl-(5-tetradecoxypentoxy)phosphinate] | 7.28 | 31 min | 22.5 µL/min/mg | half-life at 3 µM [2]: 30.9 min
CCCCCCCCCCCCCCCCCCOCCOP(=O)(O)CO[C@H](C)Cn1cnc2c(N)ncnc21.N [Compound 21, Ammonium 2-octadecoxyethoxy-[[(1R)-2-(6-aminopurin-9-yl)-1-methyl-ethoxy]methyl]phosphinate] | 8.52 | 105 min | 6.6 µL/min/mg | HLM stability (in words) [2]: improved stability in HLM
C[C@H](Cn1cnc2c(N)ncnc21)OCP(=O)(O)OCCOCCCCCCCCCCCCCC#CC(F)(F)F.N [Compound 32, Ammonium 2-((16,16,16-trifluorohexadec-14-yn-1-yl)oxy)ethyl (R)-(((1-(6-amino-9h-purin-9-yl)propan-2-yl)oxy)methyl)phosphonate] | 7.80 | >120 min | < 5.78 µL/min/mg | –
C[C@H](Cn1cnc2c(N)ncnc21)OCP(=O)(O)OCCOCCCCCCCCCCCCCCC#CC(F)(F)F.N [Compound 33, Ammonium 2-((17,17,17-trifluoroheptadec-15-yn-1-yl)oxy)ethyl (R)-(((1-(6-amino-9h-purin-9-yl)propan-2-yl)oxy)methyl)phosphonate] | 7.97 | >120 min | < 5.78 µL/min/mg | –
C[C@H](Cn1cnc2c(N)ncnc21)OCP(=O)(O)OCCOCCCCCCCCCCCCCCCC(F)(F)F.N [Compound 36, Ammonium 2-((16,16,16-trifluorohexadecyl)oxy)ethyl (R)-(((1-(6-amino-9H-purin-9-yl)propan-2-yl)oxy)methyl)phosphonate] | 8.06 | >120 min | < 5.78 µL/min/mg | –
C[C@H](Cn1cnc2c(N)ncnc21)OCP(=O)(O)OCCOCCCCCCCCCCCCCCCCC(F)(F)F.N [Compound 37, Ammonium 2-((17,17,17-trifluoroheptadecyl)oxy)ethyl (R)-(((1-(6-amino-9h-purin-9-yl)propan-2-yl)oxy)methyl)phosphonate] | 7.90 | >120 min | < 5.78 µL/min/mg | –
C[C@H](Cn1cnc2c(N)ncnc21)OCP(=O)(O)OCCOCCCCCCCCCCC#Cc1ccc(S(F)(F)(F)(F)F)cc1.N [Compound 40, Ammonium [(1R)-2-(6-aminopurin-9-yl)-1-methyl-ethoxy]methyl-[2-[12-[4-(pentafluorosulfanyl)phenyl]dodec-11-ynoxy]ethoxy]phosphinate] | 7.84 | >120 min | < 5.78 µL/min/mg | –
C[C@H](Cn1cnc2c(N)ncnc21)OCP(=O)(O)OCCOCCCCCCCCCCCCc1ccc(S(F)(F)(F)(F)F)cc1.N [Compound 42, Ammonium [(1R)-2-(6-aminopurin-9-yl)-1-methyl-ethoxy]methyl-[2-[12-[4-(pentafluorosulfanyl)phenyl]dodecoxy]ethoxy]phosphinate] | 7.60 | >120 min | < 5.78 µL/min/mg | –
CC(C)OC(=O)[C@H](C)N[P@](=O)(CO[C@H](C)Cn1cnc2c(N)ncnc21)Oc1ccccc1 [TAF, tenofovir alafenamide] | – | – | – | fraction of dose remaining available to access HIV-infected cells [5]: 18%; fraction of dose sequestered for toxic side effects [5]: 82%; fraction of dose extracted by the liver ([6]; ref Babusis et al., 2013): 65%; fraction of a single dose converted to plasma TFV ([6]; ref Lee et al., 2005): 17%
CCCCCCCCCCCCCCCCOCCCOP(=O)(O)CO[C@H](C)Cn1cnc2c(N)ncnc21 [TXL, tenofovir Exalidex, reference compound] | 7.74 | 41.6 min | – | half-life at 3 µM [2]: 42 min; microsomal CLint (in vitro): 16.7 µL/min/mg
CCCCCCCCCCCCCCCCCCCCOP(=O)(O)COC(C)Cn1cnc2c(N)ncnc21 (centres unmarked) [arachidyl TFV] | – | – | – | pIC50 [7]: 6.90
